Test results: patent publication US12611406B2, “Oxopiperazine derivatives for the treatment of cancer” (Inthera Bioscience AG, priority 2020, dated 2026)
“Also recorded” adds a separate entry of the source.

Experiments:
22Rv1 = assay: S-phase arrest (cell cycle FACS); assay type: cell-based; set-up: key: “+” (present); “−” (absent); settings: Rb wt, p53 wt
Experimental: (§1) Cell cycle phase distribution in control (C) cells or cells treated at 20 or 200 nM Compound 1 for 24 hours (24 h) determined by fluorescence activated cell sorting (FACS) analysis, and detection of histone H2A variant H2A.X phosphorylation (γH2A.X, also referred to herein as gamma H2A.X or γH2A.X) by Western blot as DNA damage biomarker.
(§2) In table 1, “wt”=wild-type; “x”=cells harboring Rb and p53 deficiencies; “+” (present) or “−” (absent) indicate the arrest (i.e. accumulation) of cells in S-phase triggered by Compound 1, which coincided with accumulation of the DNA damage marker phosphorylated gamma H2AX (γH2AX; see FIG. 3A). These events are followed by activation of caspases 3 and 7 as indicators of cell apoptosis as indicated by “+” (present) or “−” (absent). In cancer cells with intact Rb and/or p53 functions (wt=wild-type), Compound 1 induced growth arrest but not a substantial increase of cells in S-phase (=S-phase arrest). Upon release of treatment, such cells are able to proliferate again.

BT-549 = assay: S-phase arrest (cell cycle FACS); assay type: cell-based; set-up: key: “+” (present); “−” (absent); settings: Rb x, p53 x
Experimental: as §1, §2

DU-145 = assay: S-phase arrest (cell cycle FACS); assay type: cell-based; set-up: key: “+” (present); “−” (absent); settings: Rb x, p53 x
Experimental: as §1, §2

Hut-78 = assay: S-phase arrest (cell cycle FACS); assay type: cell-based; set-up: key: “+” (present); “−” (absent); settings: Rb x, p53 x
Experimental: as §1, §2

LNCaP = assay: S-phase arrest (cell cycle FACS); assay type: cell-based; set-up: key: “+” (present); “−” (absent); settings: Rb wt, p53 wt
Experimental: as §1, §2

NCI-H146 = assay: S-phase arrest (cell cycle FACS); assay type: cell-based; set-up: key: “+” (present); “−” (absent); settings: Rb x, p53 x
Experimental: as §1, §2

NCI-H209 = assay: S-phase arrest (cell cycle FACS); assay type: cell-based; set-up: key: “+” (present); “−” (absent); settings: Rb x, p53 x
Experimental: as §1, §2

NCI-H660 = assay: S-phase arrest (cell cycle FACS); assay type: cell-based; set-up: key: “+” (present); “−” (absent); settings: Rb x, p53 x
Experimental: as §1, §2

NCI-H69 = assay: S-phase arrest (cell cycle FACS); assay type: cell-based; set-up: key: “+” (present); “−” (absent); settings: Rb x, p53 x
Experimental: as §1, §2

NCI-H82 = assay: S-phase arrest (cell cycle FACS); assay type: cell-based; set-up: key: “+” (present); “−” (absent); settings: Rb x, p53 x
Experimental: as §1, §2

SCLC-21H = assay: S-phase arrest (cell cycle FACS); assay type: cell-based; set-up: key: “+” (present); “−” (absent); settings: Rb x, p53 x
Experimental: as §1, §2

Y-79 = assay: S-phase arrest (cell cycle FACS); assay type: cell-based; set-up: key: “+” (present); “−” (absent); settings: Rb x, p53 wt
Experimental: as §1, §2

[1] = 5-day daily intravenous repeated-dose TK study in CD-1 mice (mesylate salt); assay type: in vivo; settings: for half-life: both sexes, CD-1, mouse, blood, intravenous
Experimental: The aim of the present study was to explore the TK of Compound 1 after 5 days of once daily intravenous dosing in male and female CD-1 mice, with a subsequent recovery phase of 9 days.
Compound 1 (mesylate salt) was administered once daily for 5 consecutive days by intravenous injection to groups of CD-1 mice (n=8/sex/group) at dose levels of 0 (control), 0.5, 2, 6, or 12 mg/kg/day. A suspension of 0.5% methylcellulose (w/v) in sterile water was used as vehicle. Blood samples were collected for hematology, clinical chemistry (Day 6 and 15), and pharmacokinetics evaluation.

[2] = 5 consecutive days oral toxicity study in CD-1 mice; assay type: in vivo; settings: 30 mg/kg/day orally once daily for 5 consecutive days
Experimental: The toxicity of Compound 1 was assessed for several dosing regimens for CD-1 mice, Beagle dogs, and cynomolgus monkeys.

[3] = 5-day daily oral repeated-dose pilot study in Beagle dogs (mesylate salt); assay type: in vivo; settings: for Tmax / Cmax / half-life: both sexes, Beagle, dog, plasma, po
Experimental: The objective of the study was to determine the TK profile of Compound 1, following its daily administration through oral gavage for 5 consecutive days to Beagle dogs. Compound 1 (mesylate salt) was administered daily to groups of dogs (n=2/sex/group) by oral gavage (PO) for 5 consecutive days at doses of 1.5 and 2 mg/kg/day. The vehicle was 0.5% (w/v) methylcellulose in sterile water. For TK evaluation blood samples were collected from each dog on Days 1 and 5 at the following timepoints relative to dosing: pre-dose, 15 min, 30 min, as well as 1, 2, 4, 6, 8, 12, and 24 hours post-dose.

[4] = 5-day daily oral repeated-dose pilot study in cynomolgus monkeys (mesylate salt); assay type: in vivo; settings: for Tmax: all groups
Experimental: The objective of the study was to determine the TK profile of Compound 1 following its daily administration through oral gavage (po) for 5 days to cynomolgus monkeys.
Naïve male and female cynomolgus monkeys (2 animals/sex/group) were orally administered Compound 1 (mesylate salt) at dose levels of 8, 12 or 16 mg/kg/day for 5 consecutive days. The vehicle was 0.5% (w/v) methyl cellulose 400 in sterile water. For TK evaluation blood samples were collected from each animal on Days 1 and 5 at pre-dose, 15 min, 30 min, as well as 1, 2, 4, 6, 8, 12, and 24 hours post-dose.

CC(C)C[C@@H]1NCCN([C@@H](CC(C)C)C(=O)N2CCC3(C[C@@H]2C)OCC(CN2CCCC2)CO3)C1=O (stereo partly drawn) [Compound 1, (S)-3-isobutyl-1-((S)-4-methyl-1-((S)-8-methyl-3-(pyrrolidin-1-ylmethyl)-1,5-dioxa-9-azaspiro[5.5]undecan-9-yl)-1-oxopentan-2-yl)piperazin-2-one]
S-Phase Arrest (22Rv1): − | S-Phase Arrest (BT-549): + | S-Phase Arrest (DU-145): + | S-Phase Arrest (Hut-78): + | S-Phase Arrest (LNCaP): − | S-Phase Arrest (NCI-H146): + | S-Phase Arrest (NCI-H209): + | S-Phase Arrest (NCI-H660): + | S-Phase Arrest (NCI-H69): + | S-Phase Arrest (NCI-H82): + | S-Phase Arrest (SCLC-21H): + | S-Phase Arrest (Y-79): − | group mean initial blood concentration (CO) ([1]; 0.5 mg/kg/day, Day 1): 111 ng/mL | CO ([1]; 0.5 mg/kg/day, Day 5, female): 112 ng/mL | CO ([1]; 0.5 mg/kg/day, Day 5, male): 191 ng/mL | group mean initial blood concentration (CO) ([1]; 2 mg/kg/day, Day 1): 386 ng/mL | CO ([1]; 2 mg/kg/day, Day 5, female): 391 ng/mL | CO ([1]; 2 mg/kg/day, Day 5, male): 275 ng/mL | group mean initial blood concentration (CO) ([1]; 6 mg/kg/day, Day 1): 1257 ng/mL | CO ([1]; 6 mg/kg/day, Day 5, female): 641 ng/mL | CO ([1]; 6 mg/kg/day, Day 5, male): 778 ng/mL | group mean initial blood concentration (CO) ([1]; 12 mg/kg/day, Day 1): 1725 ng/mL | CO ([1]; 12 mg/kg/day, Day 5, female): 1548 ng/mL | CO ([1]; 12 mg/kg/day, Day 5, male): 1531 ng/mL | tolerability ([1]; 0.5, 2, 6, and 12 mg/kg/day intravenously once daily for 5 consecutive days): well tolerated; also recorded: well-tolerated | half-life ([1]; all groups, Day 1, read-out: terminal half-life): 1.1 to 1.3 h | half-life ([1]; over the dose interval, Day 5, read-out: elimination half-life): 1.1 to 1.9 h | tolerability [2]: well-tolerated | Total AUC (AUC(0-inf)) ([3]; 1.5 mg/kg, Day 1): 116 ng·h/mL | Total AUC (AUC(0-inf)) ([3]; 1.5 mg/kg, Day 5): 213 ng·h/mL | Total AUC ([3]; 2 mg/kg, Day 1): 173 ng·h/mL | Total AUC ([3]; 2 mg/kg, Day 5): 270 ng·h/mL | Tmax ([3]; 1.5 mg/kg): ~0.5 h | Cmax ([3]; 1.5 mg/kg, Day 1): 25.4 ng/mL | half-life ([3]; 1.5 mg/kg, Day 1, read-out: elimination half-life (converted)): 4.5 h | Cmax ([3]; 1.5 mg/kg, Day 5): 44.6 ng/mL | half-life ([3]; 1.5 mg/kg, Day 5, read-out: elimination half-life (converted)): 6.2 h | Cmax ([3]; 2 mg/kg, Day 1): 33.6 ng/mL | Tmax ([3]; 2 mg/kg, Day 1): ~0.4 h | half-life ([3]; 2 mg/kg, Day 1, read-out: T1/2 (converted)): 4.7 h | Cmax ([3]; 2 mg/kg, Day 5): 32.3 ng/mL | Tmax ([3]; 2 mg/kg, Day 5): ~2.1 h | half-life ([3]; 2 mg/kg, Day 5, read-out: T1/2 (converted)): 8.6 h | tolerability ([3]; daily oral for 5 consecutive days at 1.5 mg/kg/day): well-tolerated | Total AUC ([4]; 8 mg/kg/day, Day 1): 85 ng·h/mL | Total AUC ([4]; 8 mg/kg/day, Day 5): 175 ng·h/mL | Total AUC ([4]; 12 mg/kg/day, Day 1): 106 ng·h/mL | Total AUC ([4]; 12 mg/kg/day, Day 5): 329 ng·h/mL | Total AUC ([4]; 16 mg/kg/day, Day 1): 351 ng·h/mL | Total AUC ([4]; 16 mg/kg/day, Day 5): 561 ng·h/mL | Cmax ([4]; both sexes, cynomolgus monkey, serum, po, 8 mg/kg/day, Day 1, read-out: Peak serum levels (Cmax)): 45 ng/mL | Cmax ([4]; both sexes, cynomolgus monkey, serum, po, 8 mg/kg/day, Day 5, read-out: Cmax): 64 ng/mL | Cmax ([4]; both sexes, cynomolgus monkey, serum, po, 12 mg/kg/day, Day 1, read-out: Peak serum levels (Cmax)): 42 ng/mL | Cmax ([4]; both sexes, cynomolgus monkey, serum, po, 12 mg/kg/day, Day 5, read-out: Cmax): 72 ng/mL | Cmax ([4]; both sexes, cynomolgus monkey, serum, po, 16 mg/kg/day, Day 1, read-out: Peak serum levels (Cmax)): 136 ng/mL | Cmax ([4]; both sexes, cynomolgus monkey, serum, po, 16 mg/kg/day, Day 5, read-out: Cmax): 112 ng/mL | Tmax ([4]; both sexes, cynomolgus monkey, serum, po, Day 1): 0.5 to 0.9 h | Tmax ([4]; both sexes, cynomolgus monkey, serum, po, Day 5): 0.5 to 1.75 h | half-life ([4]; both sexes, cynomolgus monkey, serum, po, all groups and time points, read-out: half-life (T1/2)): 5 to 7 h | tolerability ([4]; oral 8, 12, and 16 mg/kg/day for 5 consecutive days, slight body weight loss, changes in hematology, urinalysis, clinical chemistry): tolerated
